Data reported in ChEMBL document CHEMBL1149550, “5(Z)-benzylidene-1,2-dihydro-9-hydroxy-10-methoxy-2,2,4-trimethyl-5H-1-aza-6-oxa-chrysenes as non-steroidal glucocorticoid receptor modulators” (Bioorg Med Chem Lett, 2007).
Active and inactive are the calls of the source. The calls are words filed in the database; no cut-off is given here.

Tests used:
[1] = target: T1, Glucocorticoid receptor (Homo sapiens, UniProt P04150); format: functional
T1 sequence (P04150 whole entry): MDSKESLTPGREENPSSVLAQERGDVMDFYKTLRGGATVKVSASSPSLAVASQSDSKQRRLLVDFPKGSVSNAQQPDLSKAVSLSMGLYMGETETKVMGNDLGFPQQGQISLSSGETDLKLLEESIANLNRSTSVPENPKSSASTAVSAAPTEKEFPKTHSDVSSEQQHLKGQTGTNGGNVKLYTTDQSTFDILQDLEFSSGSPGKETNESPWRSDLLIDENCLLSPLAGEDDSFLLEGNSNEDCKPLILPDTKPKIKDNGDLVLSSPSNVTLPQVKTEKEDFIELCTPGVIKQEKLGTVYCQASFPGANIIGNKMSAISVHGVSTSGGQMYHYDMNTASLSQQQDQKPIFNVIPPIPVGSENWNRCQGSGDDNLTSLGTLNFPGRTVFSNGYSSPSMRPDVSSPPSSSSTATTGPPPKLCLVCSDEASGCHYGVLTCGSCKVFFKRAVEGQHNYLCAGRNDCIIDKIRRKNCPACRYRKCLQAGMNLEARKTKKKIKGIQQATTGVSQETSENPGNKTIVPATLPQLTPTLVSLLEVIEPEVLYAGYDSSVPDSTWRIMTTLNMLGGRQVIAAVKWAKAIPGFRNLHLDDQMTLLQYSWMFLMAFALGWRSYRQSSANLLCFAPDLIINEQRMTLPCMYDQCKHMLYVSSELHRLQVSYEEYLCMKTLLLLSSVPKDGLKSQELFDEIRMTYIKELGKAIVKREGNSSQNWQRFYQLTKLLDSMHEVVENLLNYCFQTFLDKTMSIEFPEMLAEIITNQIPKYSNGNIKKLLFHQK
Description: Activity at GR assessed as repression of TNFalpha and IL 1-beta induced E-selectin response

[2] = target: T1, Glucocorticoid receptor; format: functional; remark: listed apart in the source
Description: Antagonist activity at GR assessed as inhibition of dexamethasone-induced GRE activation

[3] = target: T2, Androgen receptor (Homo sapiens, UniProt P10275); test: Binding affinity at AR
T2 sequence (P10275 whole entry): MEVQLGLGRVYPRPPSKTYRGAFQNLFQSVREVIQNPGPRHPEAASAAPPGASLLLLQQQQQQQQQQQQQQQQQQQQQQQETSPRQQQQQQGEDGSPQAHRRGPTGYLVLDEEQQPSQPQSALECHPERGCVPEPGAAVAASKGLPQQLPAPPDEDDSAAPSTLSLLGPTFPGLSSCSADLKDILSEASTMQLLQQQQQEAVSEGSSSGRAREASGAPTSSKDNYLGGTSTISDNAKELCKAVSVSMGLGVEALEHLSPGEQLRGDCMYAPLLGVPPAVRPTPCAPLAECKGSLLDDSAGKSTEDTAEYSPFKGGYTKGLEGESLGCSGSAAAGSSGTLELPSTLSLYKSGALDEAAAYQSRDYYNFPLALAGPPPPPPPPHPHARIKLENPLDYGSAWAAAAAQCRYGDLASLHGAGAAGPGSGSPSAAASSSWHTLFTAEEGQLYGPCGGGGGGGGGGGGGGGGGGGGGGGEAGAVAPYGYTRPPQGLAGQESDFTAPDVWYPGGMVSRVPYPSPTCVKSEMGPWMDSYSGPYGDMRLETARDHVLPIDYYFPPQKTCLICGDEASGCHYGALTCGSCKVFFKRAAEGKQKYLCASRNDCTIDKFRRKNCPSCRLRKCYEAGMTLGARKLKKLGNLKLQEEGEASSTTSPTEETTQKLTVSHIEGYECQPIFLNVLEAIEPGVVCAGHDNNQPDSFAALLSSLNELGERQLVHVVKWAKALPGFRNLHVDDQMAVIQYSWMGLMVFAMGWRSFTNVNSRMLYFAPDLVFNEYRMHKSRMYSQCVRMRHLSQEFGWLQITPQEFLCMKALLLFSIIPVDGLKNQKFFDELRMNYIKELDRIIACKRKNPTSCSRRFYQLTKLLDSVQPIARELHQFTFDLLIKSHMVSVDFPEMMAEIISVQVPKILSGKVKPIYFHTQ

[4] = target: T1, Glucocorticoid receptor; format: functional; remark: listed apart in the source
Description: Agonist activity at GR by GRE activation assay

[5] = target: T3, Mineralocorticoid receptor (Homo sapiens, UniProt P08235); test: Binding affinity at MR
T3 sequence (P08235 whole entry): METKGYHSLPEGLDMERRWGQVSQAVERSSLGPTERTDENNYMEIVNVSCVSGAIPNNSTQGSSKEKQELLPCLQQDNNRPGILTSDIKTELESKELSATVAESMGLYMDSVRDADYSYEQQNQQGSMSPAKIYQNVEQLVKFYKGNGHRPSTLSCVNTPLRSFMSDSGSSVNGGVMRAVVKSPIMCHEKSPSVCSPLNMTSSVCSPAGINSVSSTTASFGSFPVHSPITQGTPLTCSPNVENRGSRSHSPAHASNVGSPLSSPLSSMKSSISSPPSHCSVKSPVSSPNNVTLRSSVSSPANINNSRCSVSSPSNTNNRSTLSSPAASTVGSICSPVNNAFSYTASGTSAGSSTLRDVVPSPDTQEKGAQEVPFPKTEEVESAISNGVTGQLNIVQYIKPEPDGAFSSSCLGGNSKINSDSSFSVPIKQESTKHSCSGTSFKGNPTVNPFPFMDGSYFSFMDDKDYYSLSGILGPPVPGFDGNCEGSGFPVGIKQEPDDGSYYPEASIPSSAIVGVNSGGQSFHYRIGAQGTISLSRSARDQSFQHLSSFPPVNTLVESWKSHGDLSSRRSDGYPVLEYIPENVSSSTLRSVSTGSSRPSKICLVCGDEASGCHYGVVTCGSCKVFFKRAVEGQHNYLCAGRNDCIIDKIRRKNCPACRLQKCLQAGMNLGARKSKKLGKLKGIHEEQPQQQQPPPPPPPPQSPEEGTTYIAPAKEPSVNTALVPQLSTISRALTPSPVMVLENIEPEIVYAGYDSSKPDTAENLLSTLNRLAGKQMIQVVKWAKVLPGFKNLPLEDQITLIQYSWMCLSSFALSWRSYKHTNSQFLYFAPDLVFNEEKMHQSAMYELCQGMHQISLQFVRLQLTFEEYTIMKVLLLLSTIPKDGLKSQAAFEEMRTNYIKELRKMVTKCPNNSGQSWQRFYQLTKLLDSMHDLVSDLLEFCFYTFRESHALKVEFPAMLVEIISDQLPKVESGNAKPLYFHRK

[6] = target: T4, Progesterone receptor (Homo sapiens, UniProt P06401); test: Binding affinity at PR
T4 sequence (P06401 whole entry): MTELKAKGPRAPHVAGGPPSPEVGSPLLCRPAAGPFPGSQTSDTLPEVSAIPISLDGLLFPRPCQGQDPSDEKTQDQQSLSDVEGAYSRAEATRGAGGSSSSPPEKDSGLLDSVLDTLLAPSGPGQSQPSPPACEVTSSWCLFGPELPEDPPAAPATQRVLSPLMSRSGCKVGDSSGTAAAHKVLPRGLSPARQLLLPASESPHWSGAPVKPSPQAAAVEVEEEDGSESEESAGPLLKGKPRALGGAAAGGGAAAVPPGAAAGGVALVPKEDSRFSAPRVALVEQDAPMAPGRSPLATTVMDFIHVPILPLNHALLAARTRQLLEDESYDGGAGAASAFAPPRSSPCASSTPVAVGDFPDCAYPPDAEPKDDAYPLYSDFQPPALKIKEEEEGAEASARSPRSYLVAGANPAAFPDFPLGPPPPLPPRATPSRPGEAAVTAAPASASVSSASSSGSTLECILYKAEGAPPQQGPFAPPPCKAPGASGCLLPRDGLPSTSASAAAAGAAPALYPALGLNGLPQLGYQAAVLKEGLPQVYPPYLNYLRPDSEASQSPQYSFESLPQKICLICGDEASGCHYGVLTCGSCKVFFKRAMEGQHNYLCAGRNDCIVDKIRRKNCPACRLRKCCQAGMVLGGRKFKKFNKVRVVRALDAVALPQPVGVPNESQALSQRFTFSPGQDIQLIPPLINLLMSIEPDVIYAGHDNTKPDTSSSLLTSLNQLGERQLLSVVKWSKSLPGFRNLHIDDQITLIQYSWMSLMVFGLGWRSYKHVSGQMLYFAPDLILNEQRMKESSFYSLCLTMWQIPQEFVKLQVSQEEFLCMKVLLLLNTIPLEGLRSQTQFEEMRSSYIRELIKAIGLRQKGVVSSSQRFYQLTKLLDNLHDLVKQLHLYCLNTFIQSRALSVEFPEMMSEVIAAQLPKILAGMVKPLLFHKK

[7] = target: T1, Glucocorticoid receptor
Description: Displacement of radiolabeled Dexamethasone from glucocorticoid receptor

[8] = system: Rattus norvegicus; test: Antiinflammatory activity against carrageenan-induced paw edema in rat assessed as paw volume at 30 mg/kg after 3 hrs; format: functional, organism-based; set-up: dose 30 mg/kg

Row | Compound | IC50 [1] [nM] | IC50 [2] [nM] | Ki [3] [nM] | EC50 [4] [nM] | Ki [5] [nM] | Ki [6] [nM] | Ki [7] [nM] | Activity [8]
1 | COc1c(O)ccc2c1-c1ccc3c(c1/C(=C/c1cccc(O)c1)O2)C(C)=CC(C)(C)N3 | 1.1 | 4.7 | 910 | 1.5 | 290 | 750 | 1.4 | 
2 | COc1c(O)ccc2c1-c1ccc3c(c1/C(=C/c1cc(F)cc4c1OCOC4)O2)C(C)=CC(C)(C)N3 |  |  |  |  |  |  |  | Active
3 | COc1c(O)ccc2c1-c1ccc3c(c1/C(=C/c1ccc(F)cc1CO)O2)C(C)=CC(C)(C)N3 |  |  | 700 |  | 1100 | 970 |  | 
4 | COCOCc1cc(F)ccc1/C=C1\Oc2ccc(O)c(OC)c2-c2ccc3c(c21)C(C)=CC(C)(C)N3 |  |  | 630 |  | 430 | 840 |  | 
